US11691992B2 (Anacor Pharmaceuticals, Inc., priority 2017, dated 2023)

Experiments:
Assay type in all cases: cell-based
[1] = tested on: bloodstream-form trypanosome T. brucei brucei 427 strain; test: Trypanosoma brucei brucei high-throughput screening assay (resazurin); settings: 72 h, read-out: IC50: I Org. Growth T. brucei brucei SBRI 427, 3 d [uM]
Protocol: Example 105. Trypanosoma brucei brucei High-Throughput Screening Assay Procedure
All experiments were conducted with the bloodstream-form trypanosome T. brucei brucei 427 strain obtained from Seattle Biomedical Research Institute (Seattle, Wash.). Parasites were cultured in T-25 vented cap flasks and kept in humidified incubators at 37° C. and 5% CO2. The parasite culture media was complete HMI-9 medium containing 10% FBS, 10% Serum Plus medium and penicillin/streptomycin. To ensure log growth phase, trypanosomes were sub-cultured at appropriate dilutions every 2-3 days. Approximately 50 microliters of log phase cultures were diluted 1:10 in HMI-9 and 10 μL of the diluted culture was removed and counted using a hemocytometer to determine parasite concentration. Parasites were diluted by addition of an appropriate volume of HMI-9 to achieve a final parasite concentration of 2×10^5/mL. Compounds of the invention to be tested were serially diluted in DMSO and 0.5 μL added to 49.5 μL HMI-9 in triplicate 96-well plates using a Biomek NX liquid handler. Parasites from the diluted stock were added to each well (50 μL) using a Multidrop 384 dispenser to give a final concentration of 1.0×10^5/ml parasites in […] for DMSO. Trypanosomes were incubated with compounds for 72 hrs at 37° C. with 5% CO2. Resazurin (20 μL of 12.5 mg/ml stock) from Sigma-Aldrich was added to each well and plates were incubated for an additional 2-4 hrs. Assay plates were read using an EnVision plate reader at an excitation wavelength of 544 nm and emission of 590 nm. Triplicate data points were averaged to generate sigmoidal dose response curve and determine IC50 values using XLfit curve fitting software from IDBS (Guildford, UK).

[2] = tested on: TdTomato-modified T. cruzi (CL strain) in Vero cells; test: In vitro IC50 measurement of T. cruzi amastigote killing using TdTomato-modified T. cruzi (CL strain); settings: Trypanosoma cruzi, 72 h, fluorescence, read-out: IC50: I Org. amastigote Growth T. cruzi CL TdTomato, 3 d
Summary of the method: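 Vero cells were infected with tdTomato-expressing CL-strain parasites and dosed at 5 uM–5 nM. Fluorescence (ex 544/em 612 nm) was read at day 0 and again after 72 h at 37 °C, with day 0 values subtracted. IC50 and IC90 came from nonlinear regression.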

[3] = tested on: T. cruzi Tulahuen strain C2C4 containing the β-galactosidase (Lac Z) gene in rat skeletal myoblasts (L-6 cells); test: Trypanosoma cruzi C2C4 screening assay; settings: L6, 96 h, read-out: SCYNEXIS IC50: I Org. Growth T. cruzi Tulahuen C2C4 Lac Z, 4 d [uM]
Protocol: Example 113: Trypanosoma cruzi C2C4 Screening Assay Procedure
Rat skeletal myoblasts (L-6 cells) were seeded in 96-well microtiter plates at 2×10^3 cells/well in 100 μL RPMI 1640 medium with 10% FBS and 2 mM L-glutamine. After 24 h the medium was removed and replaced by 100 μL per well containing 5×10^3 trypomastigote forms of T. cruzi Tulahuen strain C2C4 containing the β-galactosidase (Lac Z) gene (Buckner, et al., Antimicrobial Agents and Chemotherapy, 40: 2592-2597 (1996)). After 48 h the medium was removed from the wells and replaced by 100 μL fresh medium with or without a serial drug dilution of the seven 3-fold dilution steps covering a range from 90 to 0.123 μg/mL. After 96 h of incubation the plates were inspected under an inverted microscope to assure growth of the controls and sterility. The substrate (50 μL) chlorophenol red-β-D-galactopyranoside (CPRG, Roche Diagnostics, Ltd) in 0.25% Nonidet P-40/PBS was added to all wells and a color reaction developed within 2-6 h which was read photometrically at 540 nm. Data were transferred into the graphic program Softmax Pro (Molecular Devices), which calculated IC50 values.

[4] = tested on: luciferase-expressing L. major parasites developing intracellularly inside RAW 264.7 macrophages; test: Leishmania major intracellular amastigote assay in RAW 264.7 macrophages (luciferase); settings: RAW264.7, 96 hours, read-out: IC50: I Org. intracellular amastigote Growth L. major, 4 d
Summary of the method: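 RAW 264.7 macrophages infected overnight with luciferase-expressing L. major promastigotes, washed of extracellular parasites, then exposed to two-fold compound dilutions (final 0.5-10,000 ng/ml) for 96 h at 37° C, 5% CO2. Luciferin luminescence after 30 min; IC50 by sigmoidal variable-slope regression.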

| Structure (SMILES) | IC50 [1] [µM] | IC50 [2] [nM] | IC50 [3] [µM] | IC50 [4] [nM] |
| --- | --- | --- | --- | --- |
| Cc1c(C(=O)Nc2ccc3c(c2)B(O)OC3)nnn1-c1ccc(F)cc1 [Example 86, 1-(4-fluorophenyl)-N-(1-hydroxy-1,3-dihydrobenzo[c][1,2]oxaborol-6-yl)-5-methyl-1H-1,2,3-triazole-4-carboxamide] | 0.075 to 0.15 | 600 to 1000 | 0.11 to 1 |  |
| O=C(Nc1ccc2c(c1)B(O)OC2)c1cn(-c2ccccc2)nn1 [Example 66, N-(1-hydroxy-1,3-dihydrobenzo[c][1,2]oxaborol-6-yl)-1-phenyl-1H-1,2,3-triazole-4-carboxamide] | 0.075 to 0.15 | < 600 | 0.06 to 0.1 | ≤ 1000 |
